Reference: BindingDB's records for patent US20250092022 (Neurocrine Biosciences, 2025)

Biological target: T1, Muscarinic acetylcholine receptor M4 (Homo sapiens, UniProt P08173)
T1 sequence (P08173 whole entry): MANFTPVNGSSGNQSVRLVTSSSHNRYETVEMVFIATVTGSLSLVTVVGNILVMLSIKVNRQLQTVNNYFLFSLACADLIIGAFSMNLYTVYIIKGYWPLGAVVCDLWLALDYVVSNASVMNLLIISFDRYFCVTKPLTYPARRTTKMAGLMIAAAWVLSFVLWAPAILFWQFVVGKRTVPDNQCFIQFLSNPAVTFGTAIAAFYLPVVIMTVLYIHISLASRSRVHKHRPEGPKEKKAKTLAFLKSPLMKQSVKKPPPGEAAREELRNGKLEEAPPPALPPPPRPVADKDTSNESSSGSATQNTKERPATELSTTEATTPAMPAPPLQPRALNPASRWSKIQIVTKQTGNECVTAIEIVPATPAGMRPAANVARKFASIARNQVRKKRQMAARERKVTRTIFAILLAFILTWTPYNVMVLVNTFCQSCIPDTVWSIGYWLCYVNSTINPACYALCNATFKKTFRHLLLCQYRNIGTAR
Assay: Binding Assay
Method: Binding affinity (Ki) for the compounds was measured by inhibition of radioligand binding to membranes from CHO cells expressing human M4 receptor. Membranes were prepared by nitrogen cavitation and differential centrifugation as previously described (Hoare et al., Mol. Pharmacol. 2003 March; 63(3): 751-65). The radioligand employed was tritiated N-methylscopolamine, used at a concentration of 1.5 nM. A dose-response of twelve concentrations of compound was used, […]. The assay buffer was 50 mM HEPES, 100 mM NaCl, 5 mM MgCl2, 1 mM ethylenediaminetetraacetic acid, pH-adjusted to pH 7.4. Membranes, radioligand and compound were incubated together for 90 minutes at 37° C., in a total volume of 150 μL in a 96-well plate. Receptor-bound radioligand was then collected by harvesting the assay over glass fiber filters pretreated with polyethylenimine to trap the cell membranes, using rapid vacuum filtration. Harvesting and radioactivity counting was conducted as previously described (see, e.g., Hoare et al., Mol. Pharmacol. 2003 63(3):751-65); Erratum at Mol. Pharmacol. 2005 July; 68(1): 260).

Row | Compound | Ki [nM]
1 | C[C@@H]1CN(c2ncc(S(=O)(=O)C3CC3)cn2)C[C@@H](C)N1C(=O)OC1CC2(C1)CN(Cc1ccccc1)C2 [US20250092022, Compound 19] | < 100
2 | Cc1nc(N2C[C@@H](C)N(C(=O)OC3CC4(C3)CN(Cc3ccccc3)C4)[C@@H](C)C2)ncc1S(C)(=O)=O [US20250092022, Compound 40] | < 100
3 | C[C@@H]1CN(c2ncc(S(=O)(=O)C(F)F)cn2)C[C@H](C)N1C(=O)OC1CC2(C1)CN(Cc1ccccc1)C2 [US20250092022, Compound 41] | < 100
4 | C[C@@H]1CN(c2ncc(OCCO)cn2)C[C@H](C)N1C(=O)OC1CC2(C1)CN(Cc1ccccc1)C2 [US20250092022, Compound 52] | > 500
